# Measured values as given in US20250308622A1, “METHODS FOR PREDICTING TRANSCRIPTION FACTOR ACTIVITY” (THE REGENTS OF THE UNIVERSITY OF COLORADO, A BODY CORPORATE, priority 2017, published 2025).
# Columns and labels:
# STAT2 = assay: MD-level time series after Kdo2-lipid A, normalized to time-matched DMSO; assay type: cell-based; conditions: mouse T-cells, 1-24 hour time course, relative to time-matched DMSO, FIG. 12E
# Description: (§1) The top panel of FIG. 4A indicates the motif displacement distribution, MD-level, and the number of motifs within […] of any eRNA origin before and after stimulation with Nutlin-3a (e.g., Nutlin) on TP53, the transcription factor known to be activated. […] Blue dots indicate a MD-level difference <10^−6.
# (§2) In each of the aforementioned perturbations, nascent transcription was assessed at a time point of one hour or less. Therefore, it was determined whether MD-levels could capture transcription factor activity across broader time frames. […] For a number of TFs, MD-levels trend upward at 12.5 minutes and show significant changes within 25 minutes of exposure.
# (§3) GEO SRR numbers of these comparisons are outlined in Table 2.
# interferon (IRF7) = assay: as above; assay type: cell-based; conditions: mouse T-cells, 1-24 hour time course, relative to time-matched DMSO, FIG. 12E
# Description: as §1, §2, §3
# YBOX1 = assay: as above; assay type: cell-based; conditions: mouse T-cells, 1-24 hour time course, relative to time-matched DMSO, FIG. 12E
# [1] = system: 641 available TF-motif models; assay: Differential MD-level analysis before/after Nutlin-3a, all available TF-motif models; assay type: cell-based, human; conditions: HCT116 cells, of 641 TF-motif models, p-value<10^−6, FIG. 12A
# Excerpt: (§4) The bottom panel of FIG. 4A indicates the change in MD-level (AMDS) following perturbation (y-axis) relative to the number of motifs within 1.5kb of any eRNA origin (x-axis). […] (D) A time series data set following treatment with Flavopiridol Jonkers2014. The y-axis indicates the MD-level change relative to time point 0. Blue dots indicate a MD-level difference <10^−6. A darker shaded line indicates a time trajectory with at least one significant MD-level. (E) Time series data set following treatment with Kdo2-lipid A (KLA) where each time point is normalized to time-matched DMSO Kaikkonen2014. Therefore, the y-axis indicates MD-level difference relative to the time point matched DMSO sample.
# (§5) The Motif Displacement score (MD-level) relates the proportion of significant motif sites within some window 2*h divided by the total number of motifs against some larger window 2*H centered at all bidirectional origin events. It is calculated on a per PWM binding model basis.
# Let Xj={x1,x2, . . . } be the set of bidirectional origin locations genome wide for some experiment j. Let Yi={y1,y2, . . . } be the set of all significant motif sites for some TF-DNA binding motif model i genome wide, which is static as it only depends on the genome build of interest. Therefore the set of all MD-levels is calculated by equation 10. […]
# E4F1 = assay: MD-level time series after flavopiridol; assay type: cell-based; conditions: mouse embryonic cells, time series 0-50 minutes relative to time point 0, FIG. 12D
# Excerpt: as §4
# (§6) In each of the aforementioned perturbations, nascent transcription was assessed at a time point of one hour or less.
# (§7) FIG. 12D data set following treatment with Flavopiridol Jonkers2014. The y-axis indicates the MD-level change relative to time point 0. […]
# as §5
# (§8) Let Xj={x1,x2, . . . } be the set of bidirectional origin locations genome wide for some experiment j. […] Therefore the set of all MD-levels is calculated by equation 10. […]
# TP53 = assay: MD-level time series after flavopiridol; assay type: cell-based; conditions: mouse embryonic cells, time series 0-50 minutes relative to time point 0, FIG. 12D
# Excerpt: as §4, §6, §7, §5, §8
# TFs = assay: MD-level time series after flavopiridol, all TFs; assay type: cell-based; conditions: mouse embryonic cells
# Excerpt: as §4, §6, §7, §5, §8
smiles,measurement,setting,value
CCCCCCCCCCCCCC(=O)O[C@H](CCCCCCCCCCC)CC(=O)O[C@@H]1[C@@H](NC(=O)C[C@@H](CCCCCCCCCCC)OC(=O)CCCCCCCCCCC)[C@H](OC[C@H]2O[C@H](OP(=O)(O)O)[C@H](NC(=O)C[C@H](O)CCCCCCCCCCC)[C@@H](OC(=O)C[C@H](O)CCCCCCCCCCC)[C@@H]2O)O[C@H](CO[C@]2(C(=O)O)C[C@@H](O[C@]3(C(=O)O)C[C@@H](O)[C@@H](O)[C@@H]([C@H](O)CO)O3)[C@@H](O)[C@@H]([C@H](O)CO)O2)[C@H]1OP(=O)(O)O [Kdo2-lipid A],shifts in MD-level of STAT2,STAT2,dynamic and time-ordered shifts
same,shifts in MD-level of interferon (IRF7),interferon (IRF7),dynamic and time-ordered shifts
same,change in co-localization (MD-level) of YBOX1,YBOX1,decreased in co-localization
COc1ccc(C2=N[C@@H](c3ccc(Cl)cc3)[C@@H](c3ccc(Cl)cc3)N2C(=O)N2CCNC(=O)C2)c(OC(C)C)c1 [Nutlin-3a],TF-motif models displaying elevated MD-levels following treatment,[1],only TP53 and TP63
CN1CC[C@H](c2c(O)cc(O)c3c(=O)cc(-c4ccccc4Cl)oc23)[C@H](O)C1 [flavopiridol],change in MD-level of E4F1,E4F1,dramatic and monotonic increase
same,change in MD-level of TP53,TP53,dramatic and monotonic increase
same,"MD-levels at 12.5 minutes, a number of TFs",TFs; 12.5 minutes of exposure,trend upward
same,"time of exposure to significant changes in MD-levels, a number of TFs",TFs; significance p<10^−6,≤ 25 min
